# Molecular target: Acyl-CoA : cholesterol acyltransferase (ACAT)
# Experiment: Acyl-CoA : cholesterol acyltransferase (ACAT) inhibitory activity
# Assay type: biochemical, Japanese white rabbits
# Details: enzyme from mucosal microsome fraction of small intestine of rabbits fed 2% cholesterol diet; [14C]oleoyl-CoA and endogenous cholesterol, 37°C for 5 minutes
# Method: Acyl-CoA : cholesterol acyltransferase (ACAT) inhibitory activity
# ACAT activity was measured by the method of Heider et al. described in Journal of Lipid Research, Vol. 24, page 1127 (1983). The enzyme ACAT was prepared from the mucosal microsome fraction of the small intestine of male, 18-week old Japanese white rabbits which had been fed diet containing 2% cholesterol for 8 weeks. The inhibitory activity of compounds were calculated by measuring the amount of the labeled cholesterol ester produced from [¹⁴C]oleoyl-CoA and endogenous cholesterol as follows. [¹⁴C]oleoyl-CoA and microsome were incubated with test compounds at 37°C for 5 minutes. The reaction was stopped by the addition of chloroform-methanol (2:1, V/V). Cholesterol ester fraction in the chloroform-methanol extracts was isolated by thin-layer chromatography and was counted their label.
row,SMILES,IC50 [nM]
1,"CCCCCCCN(Cc1oc2ccc(CC)cc2c1-c1ccc(Cl)cc1)C(=O)Nc1c(F)cc(F)cc1F [Example 3 - (35), N-[3-(4-Chlorophenyl)-5-ethylbenzofuran-2-ylmethyl]-N-heptyl-N'-(2,4,6-trifluorophenyl)urea]",6.6
2,"O=C(Nc1c(F)cc(F)cc1F)N(Cc1oc2ccccc2c1-c1ccccc1)C1CCCCCC1 [Example 3 - (10), N-Cycloheptyl-N-(3-phenylbenzofuran-2-ylmethyl)-N'-(2,4,6-trifluorophenyl)urea]",24
3,"Cc1ccc2oc(CN(Cc3ccc(F)cc3)C(=O)Nc3c(F)cc(F)cc3F)c(-c3ccc(Cl)cc3)c2c1 [Example 5 - (7), N-[3-(4-Chlorophenyl)-5-methylbenzofuran-2-ylmethyl]-N-(4-fluorobenzyl)-N'-(2,4,6-trifluorophenyl)urea]",8.8
4,"Cc1ccc2oc(CN(Cc3ccco3)C(=O)Nc3c(F)cc(F)cc3F)c(-c3ccc(Br)cc3)c2c1 [Example 5 - (15), N-[3-(4-Bromophenyl)-5-methylbenzofuran-2-ylmethyl]-N-furfuryl-N'-(2,4,6-trifluorophenyl)urea]",8.9
5,"CCCCCCCN(Cc1cc2ccccc2o1)C(=O)Nc1c(F)cc(F)cc1F [Example 3 - (9), N-(Benzofuran-2-ylmethyl)-N-heptyl-N'-(2,4,6-trifluorophenyl)urea]",73

# Results, then the compound that gave them:
row,IC50 [nM],SMILES
1,4.4,"Cc1ccc(CN(Cc2oc3ccc(C)cc3c2-c2ccc(Cl)cc2)C(=O)Nc2c(F)cc(F)cc2F)cc1 [Example 6 - (7), N-[3-(4-Chlorophenyl)-5-methylbenzofuran-2-ylmethyl]-N-(4-methylbenzyl)-N'-(2,4,6-trifluorophenyl)urea]"
2,8.4,"Cc1ccc(-c2c(CN(Cc3ccccc3)C(=O)Nc3c(F)cc(F)cc3F)oc3ccc(Cl)cc23)cc1 [Example 6 - (6), N-Benzyl-N-[5-chloro-3-(4-methylphenyl)benzofuran-2-ylmethyl]-N'-(2,4,6-trifluorophenyl)urea]"
3,7.4,"Cc1ccc2oc(CN(Cc3ccccc3)C(=O)Nc3c(F)cc(F)cc3F)c(-c3ccc(Cl)cc3)c2c1 [Example 6 - (2), N-Benzyl-N-[3-(4-chlorophenyl)-5-methylbenzofuran-2-ylmethyl]-N'-(2,4,6-trifluorophenyl)urea]"
